What was measured:
DDR1 [1] = molecular target: T1, DDR1 (Homo sapiens (Human), UniProt Q08345); assay: DDR1 binding assay (LanthaScreen Europium Kinase Binding assay); settings: potency class, read-out: Ki DDR1
Procedure: (§1) DDR1 and DDR2 binding assays were performed using Life Technologies LanthaScreen™ Europium Kinase Binding assay. The compounds were incubated with 5 nM DDR1 (Carna Biosciences) or 5 nM DDR2 (Life Technologies) for 1 hour at room temperature in white 384-well OptiPlate (PerkinElmer), containing 20 nM or 10 nM Kinase Tracer 178 respectively and 2 nM Europium labelled anti-GST antibody (Life Technologies) in assay buffer (50 mM HEPES pH 7.5, 10 mM MgCl2, 1 mM EGTA and 0.01% BRIJ35).
(§2) The ratio of fluorescence emission 665 nm/615 nm after excitation at 340 nm was obtained using the Tecan Spark 20M plate reader. IC50 values were determined in GraphPad Prism 7.0 software, using 4 parameter model: log(inhibitor) vs. response. IC50 values were converted in Ki using the Cheng-Prusoff equation (Ki=IC50/(1+[Tracer]/Kd).

DDR2 = DDR2 (Homo sapiens (Human), UniProt Q16832); assay: DDR2 binding assay (LanthaScreen Europium Kinase Binding assay); settings: potency class, read-out: Ki DDR2
Sequence of DDR2 (Q16832 22-855): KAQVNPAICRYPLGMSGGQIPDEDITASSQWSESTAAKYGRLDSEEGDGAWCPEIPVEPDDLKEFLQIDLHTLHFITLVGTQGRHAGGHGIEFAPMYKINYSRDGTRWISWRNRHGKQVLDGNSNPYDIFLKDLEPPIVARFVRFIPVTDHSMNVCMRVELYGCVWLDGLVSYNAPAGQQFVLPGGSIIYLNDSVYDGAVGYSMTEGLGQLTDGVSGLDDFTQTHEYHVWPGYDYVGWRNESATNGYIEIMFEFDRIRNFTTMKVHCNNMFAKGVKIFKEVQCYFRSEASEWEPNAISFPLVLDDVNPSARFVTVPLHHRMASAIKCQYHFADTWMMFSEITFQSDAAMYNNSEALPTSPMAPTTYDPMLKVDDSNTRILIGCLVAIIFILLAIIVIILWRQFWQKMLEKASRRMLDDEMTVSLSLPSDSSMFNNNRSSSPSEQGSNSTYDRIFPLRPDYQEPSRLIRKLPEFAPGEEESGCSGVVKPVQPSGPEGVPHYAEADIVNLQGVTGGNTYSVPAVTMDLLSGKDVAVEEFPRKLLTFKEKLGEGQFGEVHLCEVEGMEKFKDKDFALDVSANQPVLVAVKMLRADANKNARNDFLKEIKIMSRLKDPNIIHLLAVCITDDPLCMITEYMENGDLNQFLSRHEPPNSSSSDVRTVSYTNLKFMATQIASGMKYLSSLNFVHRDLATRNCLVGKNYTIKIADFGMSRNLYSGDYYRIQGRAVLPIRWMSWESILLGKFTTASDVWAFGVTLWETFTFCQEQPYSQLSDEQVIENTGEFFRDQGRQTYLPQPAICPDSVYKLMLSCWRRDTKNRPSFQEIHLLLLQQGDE
Procedure: as §1, §2

DDR1 [2] = molecular target: T1, DDR1; assay: DDR1 cell based assay (PathHunter U2OS DDR1 assay); settings: U2OS-DDR1 cells, Type II Collagen stimulation, potency class
Procedure: The inhibition of DDR1 receptor activation by compounds was evaluated by PathHunter® U2OS DDR1 assay (Eurofins DiscoverX), according to the manufacturer's instructions. Briefly, U2OS-DDR1 cells were seeded in white 384-well plates at a density of 5000 cells/well and incubated for 2 hours at 37° C. and 5% CO2. Cells were then treated with compounds at different concentrations and incubated for 30 minutes, before stimulation with bovine Type II Collagen 20 μg/ml and incubation overnight at 37° C. and 5% CO2. PathHunter Detection Reagents were prepared according to the protocol provided by DiscoverX and 20 μl/well of this mix were added to each well. After incubating the plates for 1 hour at room temperature in the dark, luminescence signal was acquired with a plate reader. Raw data were normalized to vehicle control (0% for normalization) and positive control (100% for normalization; cells treated with 20 μg/ml collagen II) and IC50 parameters were calculated in GraphPad Prism 8.0 software, using sigmoidal dose-response curve fitting with variable slope.

T1 sequence (Q08345 19-913): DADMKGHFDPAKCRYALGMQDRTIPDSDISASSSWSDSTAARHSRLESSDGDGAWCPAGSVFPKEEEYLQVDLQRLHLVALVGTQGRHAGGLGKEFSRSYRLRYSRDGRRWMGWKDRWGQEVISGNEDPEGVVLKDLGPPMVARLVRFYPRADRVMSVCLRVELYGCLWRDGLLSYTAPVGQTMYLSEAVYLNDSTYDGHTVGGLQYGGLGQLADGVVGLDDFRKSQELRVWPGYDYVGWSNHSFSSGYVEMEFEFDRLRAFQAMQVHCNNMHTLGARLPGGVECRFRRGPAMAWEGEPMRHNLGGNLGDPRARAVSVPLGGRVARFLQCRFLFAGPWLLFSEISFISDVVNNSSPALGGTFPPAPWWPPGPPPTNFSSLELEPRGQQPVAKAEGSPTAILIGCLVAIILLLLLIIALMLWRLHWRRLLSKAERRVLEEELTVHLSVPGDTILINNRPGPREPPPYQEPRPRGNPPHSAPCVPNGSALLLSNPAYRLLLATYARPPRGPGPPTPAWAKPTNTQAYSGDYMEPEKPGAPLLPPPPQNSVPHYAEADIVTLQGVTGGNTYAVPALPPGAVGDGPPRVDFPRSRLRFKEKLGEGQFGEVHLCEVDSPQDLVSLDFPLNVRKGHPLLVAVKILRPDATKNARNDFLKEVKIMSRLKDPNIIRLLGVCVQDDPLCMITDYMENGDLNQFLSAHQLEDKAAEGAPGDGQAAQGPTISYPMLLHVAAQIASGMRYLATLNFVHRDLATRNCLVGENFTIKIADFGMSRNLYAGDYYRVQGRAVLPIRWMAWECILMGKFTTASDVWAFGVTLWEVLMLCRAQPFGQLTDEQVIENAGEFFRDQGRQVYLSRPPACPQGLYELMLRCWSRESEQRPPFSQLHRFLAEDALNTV

O=C(Nc1cc(F)cc(C(F)(F)F)c1)c1csc2c1CCN(Cc1cnc(NC3COC3)nc1)C2 [Example 37, N-[3-fluoro-5-(trifluoromethyl)phenyl]-6-[[2-(oxetan-3-ylamino)pyrimidin-5-yl]methyl]-5,7-dihydro-4H-thieno[2,3-c]pyridine-3-carboxamide]
Ki (DDR1 [1]): < 25 nM
Ki (DDR2): < 25 nM
IC50 (DDR1 [2]): 25 to 50 nM

Cc1cncc(CN2CCc3c(C(=O)Nc4cccc(C(F)(F)F)c4)csc3C2)c1 [Example 22, 6-((5-methylpyridin-3-yl)methyl)-N-(3-(trifluoromethyl)phenyl)-4,5,6,7-tetrahydrothieno[2,3-c]pyridine-3-carboxamide]
Ki (DDR1 [1]): < 25 nM
Ki (DDR2): < 25 nM
IC50 (DDR1 [2]): 50 to 80 nM

Cc1cn(-c2cc(NC(=O)c3csc4c3CCN(Cc3cncnc3)C4)cc(C(F)(F)F)c2)cn1 [Example 3, N-(3-(4-methyl-1H-imidazol-1-yl)-5-(trifluoromethyl)phenyl)-6-(pyrimidin-5-ylmethyl)-4,5,6,7-tetrahydrothieno[2,3-c]pyridine-3-carboxamide]
Ki (DDR1 [1]): < 25 nM
Ki (DDR2): < 25 nM
IC50 (DDR1 [2]): 25 to 50 nM

Cc1nc(N)ncc1CN1CCc2c(C(=O)Nc3cc(F)cc(C(F)(F)F)c3)csc2C1 [Example 47, 6-((2-amino-4-methylpyrimidin-5-yl)methyl)-N-(3-fluoro-5-(trifluoromethyl)phenyl)-4,5,6,7-tetrahydrothieno[2,3-c]pyridine-3-carboxamide]
Ki (DDR1 [1]): < 25 nM
Ki (DDR2): < 25 nM
IC50 (DDR1 [2]): 50 to 80 nM

O=C(Nc1cncc(C(F)(F)F)c1)c1csc2c1CCN(Cc1cccnc1)C2 [Example 34, 6-(pyridin-3-ylmethyl)-N-(5-(trifluoromethyl)pyridin-3-yl)-4,5,6,7-tetrahydrothieno[2,3-c]pyridine-3-carboxamide]
Ki (DDR1 [1]): < 25 nM
Ki (DDR2): < 25 nM
IC50 (DDR1 [2]): 25 to 50 nM

Nc1ncc(CN2CCc3c(C(=O)Nc4cccc(C(F)(F)F)c4)csc3C2)cn1 [Example 28, 6-((2-aminopyrimidin-5-yl)methyl)-N-(3-(trifluoromethyl)phenyl)-4,5,6,7-tetrahydrothieno[2,3-c]pyridine-3-carboxamide]
Ki (DDR1 [1]): < 25 nM
Ki (DDR2): < 25 nM
IC50 (DDR1 [2]): < 25 nM

CN(C)[C@@H]1CCN(Cc2cc(NC(=O)c3csc4c3CCN(Cc3cncc(-c5cnn(C)c5)c3)C4)cc(C(F)(F)F)c2)C1 [Example 54, (R)-N-(3-((3-(dimethylamino)pyrrolidin-1-yl)methyl)-5-(trifluoromethyl)phenyl)-6-((5-(1-methyl-1H-pyrazol-4-yl)pyridin-3-yl)methyl)-4,5,6,7-tetrahydrothieno[2,3-c]pyridine-3-carboxamide]
Ki (DDR1 [1]): < 25 nM
Ki (DDR2): < 25 nM
IC50 (DDR1 [2]): 25 to 50 nM

Cn1nc(C(C)(C)C)cc1NC(=O)c1csc2c1CCN(Cc1nccnc1N)C2 [Example 15, 6-((3-aminopyrazin-2-yl)methyl)-N-(3-(tert-butyl)-1-methyl-1H-pyrazol-5-yl)-4,5,6,7-tetrahydrothieno[2,3-c]pyridine-3-carboxamide]
Ki (DDR1 [1]): < 25 nM
Ki (DDR2): < 25 nM
IC50 (DDR1 [2]): 25 to 50 nM

COc1cncc(CN2CCc3c(C(=O)Nc4cccc(C(F)(F)F)c4)csc3C2)c1 [Example 21, 6-((5-methoxypyridin-3-yl)methyl)-N-(3-(trifluoromethyl)phenyl)-4,5,6,7-tetrahydrothieno[2,3-c]pyridine-3-carboxamide]
Ki (DDR1 [1]): < 25 nM
Ki (DDR2): < 25 nM
IC50 (DDR1 [2]): < 25 nM

CN1CCN(Cc2cc(NC(=O)c3csc4c3CCN(Cc3cccnc3)C4)cc(C(F)(F)F)c2)CC1 [Example 1, N-(3-((4-methylpiperazin-1-yl)methyl)-5-(trifluoromethyl)phenyl)-6-(pyridin-3-ylmethyl)-4,5,6,7-tetrahydrothieno[2,3-c]pyridine-3-carboxamide]
Ki (DDR1 [1]): < 25 nM
Ki (DDR2): 25 to 50 nM
IC50 (DDR1 [2]): 50 to 80 nM

O=C(Nc1cccc(C(F)(F)F)c1)c1csc2c1CCN(Cc1cncc(C(F)(F)F)c1)C2 [Example 23, N-(3-(trifluoromethyl)phenyl)-6-((5-(trifluoromethyl)pyridin-3-yl)methyl)-4,5,6,7-tetrahydrothieno[2,3-c]pyridine-3-carboxamide]
Ki (DDR1 [1]): < 25 nM
Ki (DDR2): < 25 nM
IC50 (DDR1 [2]): 25 to 50 nM

Nc1ncccc1CN1CCc2c(C(=O)Nc3cc(F)cc(C(F)(F)F)c3)csc2C1 [Example 43, 6-((2-aminopyridin-3-yl)methyl)-N-(3-fluoro-5-(trifluoromethyl)phenyl)-4,5,6,7-tetrahydrothieno[2,3-c]pyridine-3-carboxamide]
Ki (DDR1 [1]): < 25 nM
Ki (DDR2): < 25 nM
IC50 (DDR1 [2]): < 25 nM

COCC(=O)Nc1ccncc1CN1CCc2c(C(=O)Nc3cccc(C(F)(F)F)c3)csc2C1 [Example 17, 6-((4-(2-methoxyacetamido)pyridin-3-yl)methyl)-N-(3-(trifluoromethyl)phenyl)-4,5,6,7-tetrahydrothieno[2,3-c]pyridine-3-carboxamide]
Ki (DDR1 [1]): < 25 nM
Ki (DDR2): 25 to 50 nM
IC50 (DDR1 [2]): 25 to 50 nM

Nc1nccnc1CN1CCc2c(C(=O)Nc3cccc(C(F)(F)F)c3)csc2C1 [Example 27, 6-((3-aminopyrazin-2-yl)methyl)-N-(3-(trifluoromethyl)phenyl)-4,5,6,7-tetrahydrothieno[2,3-c]pyridine-3-carboxamide]
Ki (DDR1 [1]): < 25 nM
Ki (DDR2): < 25 nM
IC50 (DDR1 [2]): < 25 nM

O=C(Nc1cccc(C(F)(F)F)c1)c1csc2c1CCN(Cc1cncc(N3CCS(=O)(=O)CC3)c1)C2 [Example 30, 6-((5-(1,1-dioxidothiomorpholino)pyridin-3-yl)methyl)-N-(3-(trifluoromethyl)phenyl)-4,5,6,7-tetrahydrothieno[2,3-c]pyridine-3-carboxamide]
Ki (DDR1 [1]): < 25 nM
Ki (DDR2): < 25 nM
IC50 (DDR1 [2]): 50 to 80 nM

Nc1nccnc1CN1CCc2c(C(=O)Nc3cncc(C(F)(F)F)c3)csc2C1 [Example 36, 6-((3-aminopyrazin-2-yl)methyl)-N-(5-(trifluoromethyl)pyridin-3-yl)-4,5,6,7-tetrahydrothieno[2,3-c]pyridine-3-carboxamide]
Ki (DDR1 [1]): < 25 nM
Ki (DDR2): < 25 nM
IC50 (DDR1 [2]): < 25 nM

N#Cc1cc(NC(=O)c2csc3c2CCN(Cc2cncnc2)C3)cc(C(F)(F)F)c1 [Example 14, N-(3-cyano-5-(trifluoromethyl)phenyl)-6-(pyrimidin-5-ylmethyl)-4,5,6,7-tetrahydrothieno[2,3-c]pyridine-3-carboxamide]
Ki (DDR1 [1]): < 25 nM
Ki (DDR2): < 25 nM
IC50 (DDR1 [2]): < 25 nM

O=C(Nc1cncc(C(F)(F)F)c1)c1csc2c1CCN(Cc1cncc(F)c1)C2 [Example 33, 6-((5-fluoropyridin-3-yl)methyl)-N-(5-(trifluoromethyl)pyridin-3-yl)-4,5,6,7-tetrahydrothieno[2,3-c]pyridine-3-carboxamide]
Ki (DDR1 [1]): < 25 nM
Ki (DDR2): < 25 nM
IC50 (DDR1 [2]): 25 to 50 nM

CN1CCN(Cc2cc(NC(=O)c3csc4c3CCN(Cc3cncnc3)C4)cc(C(F)(F)F)c2)CC1 [Example 2, N-(3-((4-methylpiperazin-1-yl)methyl)-5-(trifluoromethyl)phenyl)-6-(pyrimidin-5-ylmethyl)-4,5,6,7-tetrahydrothieno[2,3-c]pyridine-3-carboxamide]
Ki (DDR1 [1]): 25 to 50 nM
Ki (DDR2): 50 to 80 nM
IC50 (DDR1 [2]): 50 to 80 nM

O=C(Nc1cc(F)cc(OC(F)F)c1)c1csc2c1CCN(Cc1cncnc1)C2 [Example 12, N-(3-(difluoromethoxy)-5-fluorophenyl)-6-(pyrimidin-5-ylmethyl)-4,5,6,7-tetrahydrothieno[2,3-c]pyridine-3-carboxamide]
Ki (DDR1 [1]): < 25 nM
Ki (DDR2): < 25 nM
IC50 (DDR1 [2]): 25 to 50 nM

CN(C)Cc1cc(NC(=O)c2csc3c2CCN(Cc2cnc(N)nc2)C3)cc(C(F)(F)F)c1 [Example 55, 6-((2-aminopyrimidin-5-yl)methyl)-N-(3-((dimethylamino)methyl)-5-(trifluoromethyl)phenyl)-4,5,6,7-tetrahydrothieno[2,3-c]pyridine-3-carboxamide]
Ki (DDR1 [1]): < 25 nM
Ki (DDR2): < 25 nM
IC50 (DDR1 [2]): 25 to 50 nM

CN1CCN(c2cncc(CN3CCc4c(C(=O)Nc5cccc(C(F)(F)F)c5)csc4C3)c2)CC1=O [Example 29, 6-((5-(4-methyl-3-oxopiperazin-1-yl)pyridin-3-yl)methyl)-N-(3-(trifluoromethyl)phenyl)-4,5,6,7-tetrahydrothieno[2,3-c]pyridine-3-carboxamide]
Ki (DDR1 [1]): < 25 nM
Ki (DDR2): < 25 nM
IC50 (DDR1 [2]): 50 to 80 nM

CN(C)[C@@H]1CCN(Cc2cc(NC(=O)c3csc4c3CCN(Cc3cnc(N)nc3)C4)cc(C(F)(F)F)c2)C1 [Example 50, (R)-6-((2-aminopyrimidin-5-yl)methyl)-N-(3-((3-(dimethylamino)pyrrolidin-1-yl)methyl)-5-(trifluoromethyl)phenyl)-4,5,6,7-tetrahydrothieno[2,3-c]pyridine-3-carboxamide]
Ki (DDR1 [1]): < 25 nM
Ki (DDR2): < 25 nM
IC50 (DDR1 [2]): 25 to 50 nM

Reference: patent US20240199635A1, “TETRAHYDROTHIENO PYRIDINE DERIVATIVES AS DDRS INHIBITORS” (CHIESI FARMACEUTICI S.P.A., priority 2021, published 2024)
